The target in one test is T1, TIP1 d1 (Homo sapiens, UniProt O14907).
T1 construct: made in house; host or cells: E. coli (DH5alpha, BL21 or JM109)
T1 sequence (O14907 14-116): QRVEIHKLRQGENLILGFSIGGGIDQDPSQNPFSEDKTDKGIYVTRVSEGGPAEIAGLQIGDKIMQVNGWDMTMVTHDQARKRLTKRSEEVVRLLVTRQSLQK
Nature of the test: G3 assay titration, GST-PDZ fusion / biotinylated peptide. Format: binding. As for the experimental part: (§1) The G3 assay is identical to the G0 assay with the following exceptions. The peptides are typically present at 0.1 μM rather than 20 μM. The peptides are also pre-incubated with the HRP-streptavidin prior to adding to the assay plate. In the G0 assay, free peptide is incubated with the PDZ proteins prior to the addition of the HRP-streptavidin. Thus, for the G0 assay one can lose signal if the bound peptide dissociates from the PDZ protein prior to the addition of the HRP-streptavidin. In the G3 modified assay the HRP-streptavidin/peptide complex is added to the plate in one step, thus increasing the likelihood that all the bound peptide will be bound to HRP-streptavidin. The G3 modified assay increases the chance of observing weak interactions.
(§2) This example describes assays to identify binding between TRPM7 and PDZ domains. GST-PDZ fusions are produced that each contain an entire PDZ domain (or multiple PDZ domains), the collection encompassing approximately 90% of all PDZ domains identified in the human genome. (See Table 5 and Section V (PDZ Proteins and PL Protein Interactions Disclosure). Biotinylated peptide corresponding to 11 residues of Tat coupled to the C-terminal 9 amino acids of TRPM7 ([…]; SEQ ID NO:258) is synthesized and purified by HPLC.
(§3) • Nunc MaxiSorp 96 well Immuno-plate, Nunc • PBS pH 7.4 (phosphate buffered saline, 8 g NaCl, 0.29 g KCl, 1.44 g Na2HPO4, 0.24 g KH2PO4, add H2O to 1 liter and pH 7.4; 0.2 μm filter) • Assay Buffer: 2% BSA in PBS (20 g of bovine serum albumin per liter PBS, fraction V, ICN Biomedicals, cat#IC15142983 • Goat anti-GST polyclonal Ab, stock 5 mg/ml, stored at 4° C., Amersham Pharmacia cat#27-4577-01 • Dilute 1:1000 in PBS, final concentration 5 μg/ml. • HRP-Streptavidin, 2.5 mg/2 ml stock stored at 4° C., Zymed cat#43-4323, dilute 1:2000 into Assay buffer, final concentration of […] • Wash Buffer, PBS • Biotinylated peptides (HPLC purified, stock solution stored in −20° C. freezer) • GST-PRISM proteins (stock stored at −80° C., after 1st thaw store in −10° C. freezer) • TMB (3,3′,5,5′, teramethylbensidine), tablets, Sigma cat.#T5525 • Per plate, dissolve 1 tablet in 1 ml DMSO, add 9 ml Citrate/Phosphate buffer pH 5.4 and 2 μL H2O2 • 0.1 M H2SO4, Sigma cat.#S1526 • 12-w multichannel pipettor & tips • 50 ml reagent reservoirs, Costar#4870 • 50, 15 ml polypropylene conical tubes • Costar Transtar 96 Costar #7605 • Transtar 96 Cartridge Costar #7610 • Molecular Devices microplate reader (450 & 650 nm filters) with SoftMax Pro software *When using reagents stored at or 4° C. or −20° C., remove & keep on ice
(§4) • 1. Coat plate with 100 μl of 5 μg/ml anti-GST, overnight at 4° C. • 2. Dump contents of plate & out tap dry on paper towels • 3. Block with 200 μl Assay Buffer for 2 hrs at room temperature • 4. Prepare proteins at 5 μg/ml in Assay Buffer • 5. Wash 3× with cold PBS (4° C.), avoiding letting the plates dry out • 6. Add proteins at 50 μl per well, incubate 1 to 2 hrs at 4° C. • 7. Prepare peptides to desired concentration in Assay Buffer • 8. Wash 3× with cold PBS (4° C.), avoiding letting the plates dry out • 9. Add HRP-Streptavidin/peptide complex [prepared by incubating for 20 minutes at room temperature HRP-Streptavidin (1:2000) with the desired biotin-peptide concentration for 20 minutes at room temperature] at 50 μl per well on ice • 10. Place at room temperature for exactly 30 minutes • 11. Promptly wash 5× with PBS at room temperature • 12. Add 100 μl/well TMB substrate (write time on plate) • 13. Incubate in dark at room temperature for a maximum of 30 minutes • 14. Read plate at 25 minutes (650 nm), optional • 15. Stop reaction with 100 μl of 0.18 M H2SO4, 30 minutes after adding TMB • Take last reading at 450 nm soon after stopping reaction
The G3 assay was performed on a subset of the PDZ domains as in Example II except that the concentration of peptide was 0.002 μM, […], 0.1 μM, 0.2 μM, 1 μM, and 2 μM. Data was fitted to the equation: […]

The next test concerns the target TRPM2 (Homo sapiens, UniProt O94759). To be noted: binding to carboxy-terminal NUDT9 Nudix hydrolase domain; read-out: EC50, gating of TRPM2 channel; cited from earlier work.
Test [1] relates to neurons. In words: Oxygen-glucose deprivation (OGD) of neurons: ROS production, calcium uptake, cell death. The format is cell-based. The following applies: prolonged OGD, FIG. 7. As for the experimental part:
The fraction of dead cells was determining by dividing the number of neurons expressing GFP which became stained with propidium iodide 20 h after OGD by the number of neurons expressing GFP at the beginning of the experiment. Data for each culture was obtained from counting cells in 3 high power microscope fields per experiment.

Another test addresses TRPM7 (Homo sapiens, UniProt Q96QT4). The following applies: intracellular free; cited from earlier work.
The target in test [2] is T2, INADL d3 (Homo sapiens, UniProt Q8NI35).
T2 construct: made in house; host or cells: E. coli (DH5alpha, BL21 or JM109)
T2 sequence (Q8NI35 with tags, fused parts or gaps): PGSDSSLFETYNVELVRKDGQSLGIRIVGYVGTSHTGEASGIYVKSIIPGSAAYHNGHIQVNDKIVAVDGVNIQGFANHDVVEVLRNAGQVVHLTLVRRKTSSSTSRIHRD
In words: G assay, peptide binding to GST-PDZ fusion (Table 11). The following applies: Table 11, titrations or binding assays.
Method: (§6) The binding of labeled PL peptide (e.g., as listed in TABLE 2 and TABLE 4) to this surface is then measured. In a preferred embodiment, the assay is carried out as follows:
(§7) (1) A PDZ-domain polypeptide is bound to a surface, e.g. a protein binding surface. In a preferred embodiment, a GST/PDZ fusion protein containing one or more PDZ domains is bound to a polystyrene 96-well plate. […] In one embodiment, the GST/PDZ fusion protein is bound via an anti-GST antibody that is coated onto the 96-well plate. Adequate binding to the plate can be achieved when:
(§8) (2) Biotinylated PL peptides are allowed to react with the surface by addition of 50 μl per well of 20 μM solution of the biotinylated peptide in PBS/BSA for 10 minutes at 4° C., followed by an additional 20 minute incubation at 25° C. The plate is washed 3 times with ice cold PBS.
(§9) (3) The binding of the biotinylated peptide to the GST/PDZ fusion protein surface can be detected using a variety of methods and detectors known to one of skill in the art. In one embodiment, 100 μl per well of 0.5 μg/ml streptavidin-horseradish peroxidase (HRP) conjugate dissolved in BSA/PBS is added and allowed to react for 20 minutes at 4° C. The plate is then washed 5 times with 50 mM Tris pH 8.0 containing 0.2% Tween 20, and developed by addition of 100 μl per well of HRP-substrate solution (TMB, Dako) for 20 minutes at room temperature (RT). The reaction of the HRP and its substrate is terminated by addition of 100 μl per well of 1 M sulfuric acid, and the optical density (O.D.) of each well of the plate is read at 450 um.
(§10) (4) Specific binding of a PL peptide and a PDZ domain polypeptide is determined by comparing the signal from the well(s) in which the PL peptide and PDZ domain polypeptide are combined, with the background signal(s). […] Typically a specific or selective reaction will be at least twice background signal, more typically more than 5 times background, and most typically 10 or more times the background signal. […] Correspondingly, a statistical test (e.g. a T-test) comparing repeated measurements of the signal with -repeated measurements of the background will result in a p-value <0.05, more typically a p-value <0.01, and most typically a p-value <0.001 or less. As noted, in an embodiment of the G assay, the signal from binding of a given PL peptide to immobilized (surface bound) GST polypeptide alone is one suitable negative control (sometimes referred to as B1). Because all measurement are done in multiples (i.e. at least duplicate) the arithmetic mean (or, equivalently, average.) of several measurements is used in determining the binding, and the standard error of the mean is used in determining the probable error in the measurement of the binding. The standard error of the mean of N measurements equals the square root of the following: the sum of the squares of the difference between each measurement and the mean, divided by the product of (N) and (N−1). Thus, in one embodiment, specific binding of the PDZ protein to the platebound peptide is determined by comparing the mean signal (“mean S”) and standard error of the signal (“SE”) for a particular PL-PDZ combination with the mean B1.

Test [3] has as its target T3, ZO-1 d2 (Homo sapiens, UniProt Q07157, DEL264-264).
T3 construct: made in house; host or cells: E. coli (DH5alpha, BL21 or JM109)
T3 sequence (Q07157 with tags, fused parts or gaps DEL264-264): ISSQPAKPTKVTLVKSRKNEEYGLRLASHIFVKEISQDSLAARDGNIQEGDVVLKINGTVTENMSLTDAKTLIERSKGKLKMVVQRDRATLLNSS
The description is as above. The following applies: Table 11, titrations or binding assays.
Method: as §6, §7, §8, §9, §10

In test [4] the target is T3, ZO-1 d2. In words: G3 assay titration, GST-PDZ fusion / biotinylated peptide. Format: binding. As for the experimental part:
as §1, §2, §3, §4
(§5) The G3 assay was performed using 0.1 μM peptide representing 11 amino acids of Tat fused to the final 9 amino acids of TRPM7 ([…]; SEQ ID NO:258). […]

Test [5] deals with T2, INADL d3. The description is as above. Format: binding. How it is done:
as §1, §2, §3, §4, §5

Test [6] concerns neurons. Nature of the test: Neuronal survival 20 h after NMDA challenge (FIG. 14). The format is cell-based. To be noted: 20 h after 1 h NMDA challenge; peptide applied immediately after the NMDA challenge. As for the experimental part:
The sequence of Tat-9cTRPM7 is: [[…] or [[…]-[…]], whereby the first 11 residues correspond to the cell membrane transduction domain of the human immunodeficiency virus type 1 (HIV-1) Tat protein and the last 9 residues correspond to the last 9 amino acids of the C-terminus of human TRPM7 (accession Q96QT4). […] (A) Neuronal survival at 20 h in the indicated concentrations of Tat-9cTRPM7 in the absence of excitotoxic challenge. (B) Neuronal survival 20 h after challenging the cultures for 1 h with the indicated concentration of NMDA. Tat-9cTRPM7 was applied immediately after the NMDA challenge.
The sequence of Tat-9cTRPM7 is: [[…]-[…]; SEQ ID NO:258], whereby the first 11 residues correspond to the cell-membrane transduction domain of the human immunodeficiency virus type 1 (HIV-1) Tat protein and the last 9 residues correspond to the last 9 amino acids of the C-terminus of human TRPM7 (accession Q96QT4). (A) Neuronal survival at 20 h in the indicated concentrations of Tat-9cTRPM7 in the absence of excitotoxic challenge. (B) Neuronal survival 20 h after challenging the cultures for 1 h with the indicated concentration of NMDA. Tat-9cTRPM7 was applied immediately after the NMDA challenge.

Residues, ends and D or L forms follow the SMILES beside them. No end group written: not given here. *: point of attachment. Biotin = O=C1N[C@H]2[C@H](CS[C@H]2CCCCC(=O)*)N1

Chain of TRPM2 (O94759 whole entry, the tested form may be a part): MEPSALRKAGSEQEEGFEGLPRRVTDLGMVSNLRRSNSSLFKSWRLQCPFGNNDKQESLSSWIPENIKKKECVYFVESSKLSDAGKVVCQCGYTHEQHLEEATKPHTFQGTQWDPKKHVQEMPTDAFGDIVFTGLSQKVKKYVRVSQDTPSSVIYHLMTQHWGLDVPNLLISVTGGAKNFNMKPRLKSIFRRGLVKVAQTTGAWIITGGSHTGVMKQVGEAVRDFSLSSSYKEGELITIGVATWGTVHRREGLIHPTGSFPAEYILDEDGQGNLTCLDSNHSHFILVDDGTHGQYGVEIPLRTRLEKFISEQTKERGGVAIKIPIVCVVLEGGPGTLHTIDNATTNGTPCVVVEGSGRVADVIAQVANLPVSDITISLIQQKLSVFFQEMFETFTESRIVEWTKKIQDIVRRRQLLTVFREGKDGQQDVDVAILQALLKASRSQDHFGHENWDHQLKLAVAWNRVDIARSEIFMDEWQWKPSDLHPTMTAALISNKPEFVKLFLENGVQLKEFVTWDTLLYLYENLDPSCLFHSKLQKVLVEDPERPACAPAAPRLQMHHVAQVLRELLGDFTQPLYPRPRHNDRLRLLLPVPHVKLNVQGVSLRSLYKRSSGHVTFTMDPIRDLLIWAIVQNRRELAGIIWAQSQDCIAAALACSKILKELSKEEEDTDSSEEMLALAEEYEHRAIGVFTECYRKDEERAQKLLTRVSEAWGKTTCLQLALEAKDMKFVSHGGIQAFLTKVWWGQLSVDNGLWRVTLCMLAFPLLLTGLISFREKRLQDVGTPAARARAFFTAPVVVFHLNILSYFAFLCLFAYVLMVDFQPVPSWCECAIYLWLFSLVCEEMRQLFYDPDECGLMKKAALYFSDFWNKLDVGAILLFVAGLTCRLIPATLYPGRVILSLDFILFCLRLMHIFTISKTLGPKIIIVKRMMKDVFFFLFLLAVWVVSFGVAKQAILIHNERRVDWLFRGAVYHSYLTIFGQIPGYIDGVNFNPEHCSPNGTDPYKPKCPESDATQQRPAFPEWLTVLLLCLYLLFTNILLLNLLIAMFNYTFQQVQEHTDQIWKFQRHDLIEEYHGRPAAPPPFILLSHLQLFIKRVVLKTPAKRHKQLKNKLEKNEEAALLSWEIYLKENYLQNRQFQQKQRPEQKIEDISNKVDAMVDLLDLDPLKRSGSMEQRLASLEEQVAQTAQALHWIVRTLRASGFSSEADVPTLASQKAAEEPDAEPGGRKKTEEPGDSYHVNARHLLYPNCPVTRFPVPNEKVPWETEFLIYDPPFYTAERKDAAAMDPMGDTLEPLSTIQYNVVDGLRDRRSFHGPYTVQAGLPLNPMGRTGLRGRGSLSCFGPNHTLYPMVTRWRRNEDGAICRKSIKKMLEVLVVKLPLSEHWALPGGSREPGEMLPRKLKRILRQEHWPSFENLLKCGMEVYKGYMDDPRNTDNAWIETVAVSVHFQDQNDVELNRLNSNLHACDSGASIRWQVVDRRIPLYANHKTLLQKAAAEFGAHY
Chain of TRPM7 (Q96QT4 whole entry): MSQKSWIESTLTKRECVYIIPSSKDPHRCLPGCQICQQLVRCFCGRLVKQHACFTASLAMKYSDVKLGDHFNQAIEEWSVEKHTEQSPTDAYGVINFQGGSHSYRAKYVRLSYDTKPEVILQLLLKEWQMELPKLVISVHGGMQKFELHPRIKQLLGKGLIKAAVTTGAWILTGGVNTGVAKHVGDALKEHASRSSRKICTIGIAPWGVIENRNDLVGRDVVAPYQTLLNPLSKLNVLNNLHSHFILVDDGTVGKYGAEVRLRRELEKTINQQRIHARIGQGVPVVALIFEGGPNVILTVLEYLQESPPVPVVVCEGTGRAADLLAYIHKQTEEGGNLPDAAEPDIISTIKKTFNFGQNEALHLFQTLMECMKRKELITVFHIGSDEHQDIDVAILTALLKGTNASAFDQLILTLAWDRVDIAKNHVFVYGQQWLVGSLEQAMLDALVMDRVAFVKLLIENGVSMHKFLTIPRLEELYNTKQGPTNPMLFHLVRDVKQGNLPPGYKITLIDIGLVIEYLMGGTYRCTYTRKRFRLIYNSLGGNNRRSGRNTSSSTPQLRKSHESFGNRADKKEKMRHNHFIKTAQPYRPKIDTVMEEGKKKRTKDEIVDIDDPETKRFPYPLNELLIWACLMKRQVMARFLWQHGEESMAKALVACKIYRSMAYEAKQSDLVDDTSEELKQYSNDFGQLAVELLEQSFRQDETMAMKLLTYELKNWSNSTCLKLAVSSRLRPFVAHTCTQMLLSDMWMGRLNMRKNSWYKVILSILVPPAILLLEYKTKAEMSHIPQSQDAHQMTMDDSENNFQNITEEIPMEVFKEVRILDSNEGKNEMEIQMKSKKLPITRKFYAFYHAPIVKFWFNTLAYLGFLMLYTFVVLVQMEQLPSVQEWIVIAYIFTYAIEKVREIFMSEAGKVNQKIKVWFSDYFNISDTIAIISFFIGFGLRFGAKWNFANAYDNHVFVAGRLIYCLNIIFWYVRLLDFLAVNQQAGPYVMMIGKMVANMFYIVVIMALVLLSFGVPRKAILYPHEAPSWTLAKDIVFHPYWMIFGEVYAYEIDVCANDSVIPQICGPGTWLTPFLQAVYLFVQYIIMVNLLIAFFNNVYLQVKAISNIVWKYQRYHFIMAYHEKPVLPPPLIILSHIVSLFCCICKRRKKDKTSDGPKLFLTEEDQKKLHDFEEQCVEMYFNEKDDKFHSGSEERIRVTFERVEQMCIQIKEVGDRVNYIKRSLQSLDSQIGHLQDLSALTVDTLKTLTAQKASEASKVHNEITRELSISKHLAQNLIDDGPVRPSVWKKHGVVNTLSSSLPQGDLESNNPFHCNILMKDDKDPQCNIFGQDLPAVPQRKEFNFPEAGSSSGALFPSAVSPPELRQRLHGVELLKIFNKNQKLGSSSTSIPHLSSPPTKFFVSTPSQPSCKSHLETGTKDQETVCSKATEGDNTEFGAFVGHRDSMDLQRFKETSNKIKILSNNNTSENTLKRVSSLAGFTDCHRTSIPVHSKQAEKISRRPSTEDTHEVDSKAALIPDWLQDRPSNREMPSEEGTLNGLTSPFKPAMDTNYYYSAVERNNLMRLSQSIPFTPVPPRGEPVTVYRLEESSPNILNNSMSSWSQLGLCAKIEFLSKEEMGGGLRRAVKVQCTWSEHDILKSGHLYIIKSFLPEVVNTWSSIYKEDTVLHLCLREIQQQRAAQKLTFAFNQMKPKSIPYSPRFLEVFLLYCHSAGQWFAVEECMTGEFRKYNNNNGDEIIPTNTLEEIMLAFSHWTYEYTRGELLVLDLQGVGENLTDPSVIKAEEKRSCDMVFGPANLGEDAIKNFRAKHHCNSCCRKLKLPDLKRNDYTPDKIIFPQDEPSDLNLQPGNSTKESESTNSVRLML

One may read the EC50 as the concentration giving half of the maximal effect. The molecule `CC(C)[C@H](NC(=O)[C@H](CCC(=O)O)NC(=O)[C@@H](NC(=O)[C@H](CCC(=O)O)NC(=O)[C@H](CCCNC(=N)N)NC(=O)[C@H](Cc1ccccc1)NC(=O)[C@H](Cc1c[nH]cn1)NC(=O)[C@H](CCCCN)NC(=O)[C@H](CCC(=O)O)NC(=O)[C@H](CCCNC(=N)N)NC(=O)[C@H](CCCNC(=N)N)NC(=O)[C@H](CCCNC(=N)N)NC(=O)[C@H](CCC(N)=O)NC(=O)[C@H](CCCNC(=N)N)NC(=O)[C@H](CCCNC(=N)N)NC(=O)[C@H](CCCCN)NC(=O)[C@H](CCCCN)NC(=O)[C@H](CCCNC(=N)N)NC(=O)CNC(=O)[C@H](Cc1ccc(O)cc1)NC(=O)CCCC[C@@H]1SC[C@@H]2NC(=O)N[C@@H]21)[C@@H](C)O)C(=O)O` [AA353] (Biotin-YGRKKRRQRRREKHFRETEV-OH) had an EC50 on TIP1 d1 of less than 0.002 µM.
Regarding `NC(=O)c1ccc[n+]([C@@H]2O[C@H](COP(=O)([O-])OP(=O)(O)OC[C@H]3O[C@@H](n4cnc5c(N)ncnc54)[C@H](O)[C@@H]3O)[C@@H](O)[C@H]2O)c1` [nicotinamide adenine dinucleotide], the EC50 at TRPM2 was 1000 µM.
Take `[Gd+3]` [Gd^3+]: the survival of neurons result with neurons [1] was “permit survival of neurons destined to die from prolonged OGD”.
For the molecule `Nc1ncnc2c1ncn2[C@@H]1O[C@H](COP(=O)(O)OP(=O)(O)OC[C@H]2OC(O)[C@H](O)[C@@H]2O)[C@@H](O)[C@H]1O` (stereo partly drawn) [ADP ribose], the EC50 on TRPM2 is 100 µM.
Consider `[Mg+2]` [Mg^2+], for which the “concentration inhibiting TRPM7” value at TRPM7 was 0.6 mM.
As for `C[C@H](NC(=O)[C@H](Cc1c[nH]c2ccccc12)NC(=O)[C@H](Cc1ccc(O)cc1)NC(=O)[C@H](CCCCN)NC(=O)[C@H](CCCNC(=N)N)NC(=O)[C@H](CC(=O)O)NC(=O)[C@@H](NC(=O)[C@H](CCCNC(=N)N)NC(=O)[C@H](CO)NC(=O)[C@H](CCCNC(=N)N)NC(=O)[C@H](CCCNC(=N)N)NC(=O)[C@H](CCCNC(=N)N)NC(=O)[C@H](CCC(N)=O)NC(=O)[C@H](CCCNC(=N)N)NC(=O)[C@H](CCCNC(=N)N)NC(=O)[C@H](CCCCN)NC(=O)[C@H](CCCCN)NC(=O)[C@H](CCCNC(=N)N)NC(=O)CNC(=O)[C@H](Cc1ccc(O)cc1)NC(=O)CCCC[C@@H]1SC[C@@H]2NC(=O)N[C@@H]21)[C@@H](C)O)C(=O)O` [Peptide 1832] (Biotin-YGRKKRRQRRRSRTDRKYWA-OH; C-terminus assumed), the PDZ domain bound entry on INADL d3 [2] is listed as “INADL D3”; on ZO-1 d2 [3], “ZO-1 D2”. In addition, the EC50 on ZO-1 d2 [4] is less than 0.02 µM; at INADL d3 [5], 0.2 µM. The “ODmax (450 nm)” value at ZO-1 d2 [4] (Table 10, titration of peptides with ZO-1 d2) came to 2.10; on INADL d3 [5] (Table 10, titration of peptides with INADL d3), 0.60.
Consider YGRKKRRQRRRSTNSVRLML [Tat-9cTRPM7], for which the Neuronal survival result in the test on neurons [6] is “enhanced survival”.

The values above are taken from patent US20080119412A1, “Polypeptides for Modulating Binding of Trp Channel Proteins and Trp- Associated Proteins” (NoNO Inc., priority 2003, published 2008).
